Reference: US9655965B2, “Radiosensitizer compounds for use in combination with radiation” (priority 2013, dated 2017)
Entries after “also recorded” stand apart in the source; their conditions may differ.

What was measured:
[1] = test system: human cervical cancer (HeLa) cells; assay: In vitro radiosensitizing effect, MTT assay 6 days after X-ray, HeLa; format: cell-based; conditions: 12-hr treatment, MTT at 6 days
Description: (§1) Dibromo-diamino-benzene (Dibromo-phenylenediamine, Compound B) was obtained from TCI—America. Diiodo-diaminobenzene (Compound C) were synthesized, purified and crystallized in our laboratory, and the structures and purity were examined by NMR and mass spectrometry. MEM and fetal bovine serum (FBS), penicillin G and streptomycin were obtained from Hyclone Laboratories (UT, USA). Stock solution of cisplatin was freshly prepared in ultrapure water or saline, and stock solutions of Compounds A, B, C, D were prepared in pure ethanol, where the final concentration of ethanol was ≦1% when treated to cells.
(§2) A human skin diploid fibroblast (GM05757 cell line) was obtained from the Coriell Cell Repository directly, while the human cervical cancer cell line (HeLa, ATCC#: CCL-2; or ME-180), human ovarian cancer cell line (NIH:OVCAR-3, ATCC#: HTB-161) and human lung cancer cell line (A549, ATCC#: CCL-185™), together with RPMI 1640, F-12K, McCoy's 5 A and L-15 culture media, were obtained from the American Type Culture Collection (ATCC) directly. Fetal bovine serum (FBS) was obtained from Hyclone Laboratories (UT, USA). The GM05757 normal cells and HeLa cells were cultivated with MEM (Hyclone) supplemented with 10% FBS, 100 units/mL penicillin G and 100 μg/mL streptomycin (Hyclone). The complete growth media for ME-180, NIH:OVCAR-3, A549 and MDA-MB-231 cells were the ATCC-formulated McCoy's 5 A Medium supplemented with 10% FBS, RPMI 1640 medium with 20%, F-12K medium with 10% FBS, and L-15 Medium (Leibovitz) with 10% FBS, respectively. The cells were maintained at 37° C. in a humidified atmosphere containing 5% CO2.
(§3) The radiosensitizing effects of RSCs on cell viability were determined by the 3-[4,5-dimethylthiazol-2-yl]-2,5-diphenyl tetrazoliumbromide (MTT) assay. Cells were cultured in 96-well plates (5×10^3 cells/well) for 24 h. […] The surviving fraction was determined by measuring the absorbance at 540 nm (570 nm for SDS solubilization) using a Multiskan Spectrum UV/Vis microplate reader (Thermo Scientific), which is directly proportional to the number of viable cells.

[2] = test system: human cervical cancer (ME-180) cells; assay: In vitro radiosensitizing effect, MTT assay 6 days after X-ray, ME-180; format: cell-based
Description: as §1, §2
(§4) The radiosensitizing effects of RSCs on cell viability were determined by the 3-[4,5-dimethylthiazol-2-yl]-2,5-diphenyl tetrazoliumbromide (MTT) assay. Cells were cultured in 96-well plates (5×10^3 cells/well) for 24 h. The culture medium was replaced by fresh culture medium and incubated for 12 h with varying drug concentrations. The cells were then irradiated by 225 kV X-ray (PRECISION X-RAD IR 225) at a dose rate of 2 Gy/min with various X-ray doses. After irradiation, the cells were incubated for 6 days. The MTT assay of cell viability was then conducted. Briefly, 100 μl new medium without phenol red containing 1.2 mM MTT (sigma) (i.e., adding 10 μl 12 mM MTT stock solution in PBS) were added to each well and incubated for 4 h. The medium was then removed, and the formazan crystals solubilized by 100 μL/well DMSO (or alternatively by 100 μl/well SDS and incubated for another 4 h). The surviving fraction was determined by measuring the absorbance at 540 nm (570 nm for SDS solubilization) using a Multiskan Spectrum UV/Vis microplate reader (Thermo Scientific), which is directly proportional to the number of viable cells.

[3] = test system: cisplatin-resistant human ovarian cancer (HTB-161) cells; assay: In vitro radiosensitizing effect, MTT assay 6 days after X-ray, HTB-161; format: cell-based; conditions: MTT at 6 days
Description: as §1, with “cells. […]” for “cells.”
as §3, with “assay.” for “assay. Cells were cultured in 96-well plates (5×10^3 cells/well) for 24 h.”

[4] = test system: various human cancer cells; assay: In vitro radiosensitizing effects in various human cancer cells (FIG. 14-21); format: cell-based; conditions: 12 hr treatment, then various doses of 225 keV X-ray
Description: as §1, §2, §4

[5] = [Lu, 2010]; cited from earlier work
[6] = test system: human normal cells (GM05757); assay: In vitro toxicity in human normal cells, 72-hr treatment, MTT assay; format: cell-based; conditions: GM05757, 72-hr treatment, without ionizing radiation; for toxicity toward human normal cells: 0-50 μM cisplatin, 0-200 μM compounds
Description: as §1, with “TCI-America.” for “TCI—America.”
(§5) A human skin diploid fibroblast (GM05757 cell line) was obtained from the Coriell Cell Repository directly. Fetal bovine serum (FBS) was obtained from Hyclone Laboratories (UT, USA). The GM05757 normal cells were cultivated with MEM (Hyclone) supplemented with 10% FBS, 100 units/mL penicillin G and 100 μg/mL streptomycin (Hyclone). The cells were maintained at 37° C. in a humidified atmosphere containing 5% CO2.
as §4, with “for 72” for “for 12”, “concentrations.” for “concentrations. The cells were then irradiated by 225 kV X-ray (PRECISION X-RAD IR 225) at a dose rate of 2 Gy/min with various X-ray doses. After irradiation, the cells were incubated for 6 days.”

[7] = test system: human normal cells (GM05757); assay: In vitro radiation-induced toxicity in human normal cells, MTT assay 12 days after X-ray; format: cell-based; conditions: GM05757, 12-hr treatment, then 0-10 Gy 225 keV X-ray, MTT at 12 days
Description: as §1, with “TCI-America.” for “TCI—America.”
as §5
as §4, with “for 12” for “for 6”, “h. […]” for “h. The medium was then removed, and the formazan crystals solubilized by 100 μL/well DMSO (or alternatively by 100 μl/well SDS and incubated for another 4 h).”

mice = conditions: literature; cited from earlier work

Molecule	enhancement of radiosensitivity of cancer cells to X-ray ([1]; 0-10 Gy 225 keV X-ray)	killing of cancer cells in combination with radiation [4]	toxicity toward human normal cells [6]	radiation toxicity in human normal cells [7]	further results
bromo-(1,2-)diamino-benzene [Compound D]	significant enhancement in the radiosensitivity	enhanced the killing of cancer cells in a radiation dose dependent manner and in synergy with radiation; also recorded: enhances the effectiveness of ionizing radiation to kill tumor cells	–	–	enhancement of radiosensitivity of cancer cells to X-ray ([2]; ME-180, 12-hr treatment, 0-10 Gy 225 keV X-ray, MTT at 6 days): significant enhancement in the radiosensitivity; killing of cancer cells ([2]; ME-180, 50 Gy x-ray with about 100 μM compound, about 20% survived without any RSC): early all cancer cells were killed; enhancement of radiosensitivity of cisplatin-resistant cancer cells to X-ray ([3]; HTB-161, 0-7.5 Gy 225 keV X-ray): significant enhancement in the radiosensitivity
O=c1[nH]c(=O)n([C@H]2C[C@H](O)[C@@H](CO)O2)cc1I [IdU, iododeoxyuridine]	–	–	–	–	DET reaction with epre− among halopyrimidines [5]: strongest DET reaction among the halopyrimidines
Nc1cc(Cl)c(Cl)cc1N [Compound A, 4,5-dichloro-1,2-phenylenediamine]	significant enhancement in the radiosensitivity	enhanced the killing of cancer cells in a radiation dose dependent manner and in synergy with radiation; also recorded: enhances the effectiveness of ionizing radiation to kill tumor cells	essentially no toxicity; also recorded: little toxicity up to 200 μM	no radiation toxicity	enhancement of radiosensitivity of cisplatin-resistant cancer cells to X-ray ([3]; HTB-161, 12-hr treatment, 0-10 Gy 225 keV X-ray): significant enhancement in the radiosensitivity
cis-Pt(NH3)2Cl2 [cisplatin, reference compound]	–	–	highly toxic; also recorded: severe toxicity even at low concentrations of ≦30 μM	essentially no radiation toxicity	IC50 ([6]; read-out: IC50 (cell survival rate 50% with respect to untreated cells)): ~10 µM; LD50 (mice): 13.5 mg/kg
Nc1cc(I)c(I)cc1N [Compound C, 4,5-diiodo-1,2-phenylenediamine]	–	enhanced the killing of cancer cells in a radiation dose dependent manner and in synergy with radiation; also recorded: enhances the effectiveness of ionizing radiation to kill tumor cells	essentially no toxicity; also recorded: little toxicity up to 200 μM	–	enhancement of radiosensitivity of cancer cells to X-ray ([1]; 0 and 20 Gy 225 keV X-ray): significant enhancement in the radiosensitivity
